Results taken from US20210346357A1 (priority 2020, published 2021).

Tested on: IL-2 stimulated pSTAT5 in Tall-1 T cells (JAK1/3)
Test: Inhibition of IL-2 stimulated pSTAT5 in Tall-1 T cells
Assay type: cell-based
Settings: Homo sapiens, IL-2 300 ng/mL, AlphaLisa pSTAT5, read-out: Tall-1 pIC50 (converted)
Procedure: Assay 2: Inhibition of IL-2 Stimulated pSTAT5 in Tall-1 T Cells
The potency of test compounds for inhibition of interleukin-2 (IL-2) stimulated STATS phosphorylation was measured in the Tall-1 human T cell line (DSMZ) using AlphaLisa. Because IL-2 signals through JAK1/3, this assay provides a measure of JAK1/3 cellular potency.
Phosphorylated STATS was measured via the AlphaLISA SureFire Ultra pSTAT5 (Tyr694/699) kit (PerkinElmer).
Human T cells from the Tall-1 cell line were cultured in a 37° C., 5% CO2 humidified incubator in RPMI (Life Technologies) supplemented with 15% Heat Inactivated Fetal Bovine Serum (FBS, Life Technologies), 2mM Glutamax (Life Technologies), 25 mM HEPES (Life Technologies) and 1X Pen/Strep (Life Technologies). […] Phosphorylated STATS was measured via the pSTAT5 AlphaLisa kit (PerkinElmer). […] Luminescence was measured with excitation at 689 nm and emission at […] using an EnVision plate reader (PerkinElmer) under green filtered <100 lux light.
To determine the inhibitory potency of test compounds in response to IL-2, the average emission intensity of beads bound to pSTAT5 was measured in a human T cell line. IC50 values were determined from analysis of the inhibition curves of signal intensity versus compound concentration. Data are expressed as pIC50 (negative decadic logarithm IC50) values (mean±standard deviation).

CCc1cc(O)ccc1-c1ccc2c(-c3nc4c([nH]3)CN(C(C)C)[C@H](C(=O)N3CC(N(C)C)C3)C4)n[nH]c2c1 [Compound 1, (S)-(3-(dimethylamino)azetidin-1-yl)(2-(6-(2-ethyl-4-hydroxyphenyl)-1H-indazol-3-yl)-5-isopropyl-4,5,6,7-tetrahydro-3H-imidazo[4,5-c]pyridin-6-yl)methanone]
IC50: 2.51 nM
